Assay results reported in ChEMBL document CHEMBL3885861, “Open TG-GATES”.

Species: Rattus norvegicus
Test: Open TG-GATES - Regimen: Daily Repeat
Format: toxicity, organism-based, Sprague-Dawley
Design: regimen Daily Repeat, gender Male, age 6 weeks
Settings: in vivo, po, 100 mg/kg, route gavage, dose level Low; for APTT / Bas / Eos / Fbg / Hb / Ht / Lym / MCH / MCHC / MCV / Mono / Neu / PT / Plat / RBC / Ret / WBC: tissue Blood; for KIDNEY_L / KIDNEY_R / KIDNEY_TOTAL: tissue Kidney; for LIVER: tissue Liver; for A/G / ALP / ALT / AST / BUN / CRE / Ca / Cl / DBIL / GLC / IP / K / LDH / Na / PL / RALB / TBIL / TC / TG / TP / gamma-GTP: tissue Plasma

Structure (SMILES): CC(S)C(=O)NCC(=O)O (configuration not stated) [TIOPRONIN]
- TERMINAL_BW (72 h, time 3 day): 228.4 g
- APTT (72 h, time 3 day): 22 s
- Bas (72 h, time 3 day): 0%
- Eos (72 h, time 3 day): 1%
- Fbg (72 h, time 3 day): 299.8 mg/dL
- Hb (72 h, time 3 day): 13 g/dL
- Ht (72 h, time 3 day): 39.1%
- Lym (72 h, time 3 day): 77.8%
- MCH (72 h, time 3 day): 19.9 pg
- MCHC (72 h, time 3 day): 33.2%
- MCV (72 h, time 3 day): 60.1 fL
- Mono (72 h, time 3 day): 2.8%
- Neu (72 h, time 3 day): 17.8%
- PT (72 h, time 3 day): 15.6 s
- Plat (72 h, time 3 day): 120.9 x10_4/uL
- RBC (72 h, time 3 day): 652 x10_4/ul
- Ret (72 h, time 3 day): 6.7%
- WBC (72 h, time 3 day): 105.6 x10_2/uL
- KIDNEY_L (72 h, time 3 day): 1 g
- KIDNEY_R (72 h, time 3 day): 1 g
- KIDNEY_TOTAL (72 h, time 3 day): 2 g
- LIVER (72 h, time 3 day): 10.8 g
- A/G (72 h, time 3 day): 1.2
- ALP (72 h, time 3 day): 1580 IU/L
- ALT (72 h, time 3 day): 43.6 IU/L
- AST (72 h, time 3 day): 73.6 IU/L
- BUN (72 h, time 3 day): 17 mg/dL
- CRE (72 h, time 3 day): 0.2 mg/dL
- Ca (72 h, time 3 day): 10.6 mg/dL
- Cl (72 h, time 3 day): 106.4 meq/L
- DBIL (72 h, time 3 day): 0 mg/dL
- GLC (72 h, time 3 day): 189.4 mg/dL
- IP (72 h, time 3 day): 7.4 mg/dL
- K (72 h, time 3 day): 4.4 meq/L
- LDH (72 h, time 3 day): 165.2 IU/L
- Na (72 h, time 3 day): 140.8 meq/L
- PL (72 h, time 3 day): 139.8 mg/dL
- RALB (72 h, time 3 day): 3.1 g/dL
- TBIL (72 h, time 3 day): 0.008 mg/dL
- TC (72 h, time 3 day): 76.6 mg/dL
- TG (72 h, time 3 day): 107.2 mg/dL
- TP (72 h, time 3 day): 5.6 g/dL
- gamma-GTP (72 h, time 3 day): 1.6 IU/L
- TERMINAL_BW ([…], time 7 day): 255.1 g
- TERMINAL_BW ([…], time 14 day): 321.9 g
- TERMINAL_BW ([…], time 28 day): 376.7 g
- APTT ([…], time 7 day): 22.4 s
- Bas ([…], time 7 day): 0%
- Eos ([…], time 7 day): 0.8%
- Fbg ([…], time 7 day): 305.8 mg/dL
- Hb ([…], time 7 day): 13.5 g/dL
- Ht ([…], time 7 day): 39.7%
- Lym ([…], time 7 day): 79.2%
- MCH ([…], time 7 day): 20.9 pg
- MCHC ([…], time 7 day): 34.1%
- MCV ([…], time 7 day): 61.4 fL
- Mono ([…], time 7 day): 2.4%
- Neu ([…], time 7 day): 16.4%
- PT ([…], time 7 day): 15.8 s
- Plat ([…], time 7 day): 125.6 x10_4/uL
- RBC ([…], time 7 day): 647 x10_4/ul
- Ret ([…], time 7 day): 6.1%
- WBC ([…], time 7 day): 109.7 x10_2/uL
- APTT ([…], time 14 day): 24.5 s
- Bas ([…], time 14 day): 0%
- Eos ([…], time 14 day): 1%
- Fbg ([…], time 14 day): 297 mg/dL
- Hb ([…], time 14 day): 14.3 g/dL
- Ht ([…], time 14 day): 41.1%
- Lym ([…], time 14 day): 80.2%
- MCH ([…], time 14 day): 20.8 pg
- MCHC ([…], time 14 day): 34.8%
- MCV ([…], time 14 day): 59.9 fL
- Mono ([…], time 14 day): 2.4%
- Neu ([…], time 14 day): 15.4%
- PT ([…], time 14 day): 15.6 s
- Plat ([…], time 14 day): 116.6 x10_4/uL
- RBC ([…], time 14 day): 686.2 x10_4/ul
- Ret ([…], time 14 day): 5.6%
- WBC ([…], time 14 day): 147.7 x10_2/uL
- APTT ([…], time 28 day): 25.2 s
- Bas ([…], time 28 day): 0%
- Eos ([…], time 28 day): 1.2%
- Fbg ([…], time 28 day): 325.8 mg/dL
- Hb ([…], time 28 day): 15.2 g/dL
- Ht ([…], time 28 day): 43.1%
- Lym ([…], time 28 day): 80.6%
- MCH ([…], time 28 day): 19.6 pg
- MCHC ([…], time 28 day): 35.2%
- MCV ([…], time 28 day): 55.6 fL
- Mono ([…], time 28 day): 2.6%
- Neu ([…], time 28 day): 14.6%
- PT ([…], time 28 day): 15.9 s
- Plat ([…], time 28 day): 94 x10_4/uL
- RBC ([…], time 28 day): 775.4 x10_4/ul
- Ret ([…], time 28 day): 2.8%
- WBC ([…], time 28 day): 122.4 x10_2/uL
- KIDNEY_L ([…], time 7 day): 1.1 g
- KIDNEY_R ([…], time 7 day): 1.1 g
- KIDNEY_TOTAL ([…], time 7 day): 2.2 g
- KIDNEY_L ([…], time 14 day): 1.2 g
- KIDNEY_R ([…], time 14 day): 1.3 g
- KIDNEY_TOTAL ([…], time 14 day): 2.5 g
- KIDNEY_L ([…], time 28 day): 1.3 g
- KIDNEY_R ([…], time 28 day): 1.4 g
- KIDNEY_TOTAL ([…], time 28 day): 2.7 g
- LIVER ([…], time 7 day): 11.2 g
- LIVER ([…], time 14 day): 14.1 g
- LIVER ([…], time 28 day): 15.3 g
- A/G ([…], time 7 day): 1.1
- ALP ([…], time 7 day): 1665.2 IU/L
- ALT ([…], time 7 day): 37.2 IU/L
- AST ([…], time 7 day): 66.8 IU/L
- BUN ([…], time 7 day): 16.8 mg/dL
- CRE ([…], time 7 day): 0.1 mg/dL
- Ca ([…], time 7 day): 10.6 mg/dL
- Cl ([…], time 7 day): 107.4 meq/L
- DBIL ([…], time 7 day): 0 mg/dL
- GLC ([…], time 7 day): 189.8 mg/dL
- IP ([…], time 7 day): 7.3 mg/dL
- K ([…], time 7 day): 4.2 meq/L
- LDH ([…], time 7 day): 146.2 IU/L
- Na ([…], time 7 day): 141.8 meq/L
- PL ([…], time 7 day): 139.4 mg/dL
- RALB ([…], time 7 day): 3 g/dL
- TBIL ([…], time 7 day): 0.002 mg/dL
- TC ([…], time 7 day): 70.6 mg/dL
- TG ([…], time 7 day): 103.2 mg/dL
- TP ([…], time 7 day): 5.6 g/dL
- gamma-GTP ([…], time 7 day): 2.2 IU/L
- A/G ([…], time 14 day): 1.2
- ALP ([…], time 14 day): 1412.8 IU/L
- ALT ([…], time 14 day): 37.4 IU/L
- AST ([…], time 14 day): 66.6 IU/L
- BUN ([…], time 14 day): 18.2 mg/dL
- CRE ([…], time 14 day): 0.2 mg/dL
- Ca ([…], time 14 day): 10.4 mg/dL
- Cl ([…], time 14 day): 107.4 meq/L
- DBIL ([…], time 14 day): 0 mg/dL
- GLC ([…], time 14 day): 199 mg/dL
- IP ([…], time 14 day): 6.4 mg/dL
- K ([…], time 14 day): 4.3 meq/L
- LDH ([…], time 14 day): 135.6 IU/L
- Na ([…], time 14 day): 141.6 meq/L
- PL ([…], time 14 day): 134 mg/dL
- RALB ([…], time 14 day): 3.1 g/dL
- TBIL ([…], time 14 day): 0.006 mg/dL
- TC ([…], time 14 day): 65.4 mg/dL
- TG ([…], time 14 day): 121 mg/dL
- TP ([…], time 14 day): 5.7 g/dL
- gamma-GTP ([…], time 14 day): 2 IU/L
- A/G ([…], time 28 day): 1.2
- ALP ([…], time 28 day): 1019.8 IU/L
- ALT ([…], time 28 day): 34.6 IU/L
- AST ([…], time 28 day): 58.2 IU/L
- BUN ([…], time 28 day): 19.2 mg/dL
- CRE ([…], time 28 day): 0.2 mg/dL
- Ca ([…], time 28 day): 10.8 mg/dL
- Cl ([…], time 28 day): 106.8 meq/L
- DBIL ([…], time 28 day): 0 mg/dL
- GLC ([…], time 28 day): 191 mg/dL
- IP ([…], time 28 day): 6.2 mg/dL
- K ([…], time 28 day): 4 meq/L
- LDH ([…], time 28 day): 115.8 IU/L
- Na ([…], time 28 day): 142.8 meq/L
- PL ([…], time 28 day): 142.4 mg/dL
- RALB ([…], time 28 day): 3.2 g/dL
- TBIL ([…], time 28 day): 0.008 mg/dL
- TC ([…], time 28 day): 77.4 mg/dL
- TG ([…], time 28 day): 136.4 mg/dL
- TP ([…], time 28 day): 5.9 g/dL
- gamma-GTP ([…], time 28 day): 1.6 IU/L
